From US11851710B2, “Methods and materials for identifying metastatic malignant skin lesions and treating skin cancer” (Mayo Foundation for Medical Education and Research, priority 2014, dated 2023)

Tests used:
Type in all cases: cell-based
β1 integrin = assay: Cell surface β1 integrin expression by flow cytometry after overnight drug incubation; conditions: 5 μM
Method: (§1) FIGS. 13A-13P illustrate B-raf^V600E inhibits FAK to promote integrin surface expression. FIG. 13A: shRNAs 841, 102 and NC were induced in WM858 cells by IPTG for 5 days (n=4) followed by RNA quantitation. Genes regulated at 0 vs. 0.05 mM IPTG in 841 and 102 but not NC cells are shown. These were: ITGB3 (orange), FAK (blue). Light orange, light blue: up- or down-regulation, respectively, by either 841 or 102 shRNA. FIG. 13B: WM858 cells were transfected with FAK or EGFP cDNA. Regulated genes, FAK over EGFP cells, are shown in orange (up) or blue (down) (n=4). FIG. 13C: Flow cytometry of NC, 841 and 102 cells (un-induced vs. 0.05 mM IPTG for 5 days). FIG. 13D: Integrin cell surface mean intensities; mean.+−.s.d.; n=3; *, p<0.05; p values, Student's t-test; ns, not significant. FIG. 13E: Visualization of focal adhesions by paxillin staining on micropatterned fibronectin disks. FIGS. 13F and 13G: Proliferation speed in the absence (FIG. 13F) or presence (FIG. 13G) of FAK shRNAs; mean.+−.s.d.; n=8; *, p<0.05; p values, Student's t-test; ns, not significant. FIGS. 13H and 13I: Scratch wound healing in IPTG-induced cells; representative experiment (n=3). FIGS. 13J and 13K: Effect of IPTG-induced FAK knock-down on total (t) and phospho (p)-ERK; mean.+−.s.d.; n=4; *, p<0.05; p values, Student's t-test. FIG. 13L: Cell surface β1 and β3 integrin expression (flow cytometry) in B-raf^V600E and wild-type cells after overnight drug incubation; % expression relative to DMSO is shown. FIGS. 13M-13O: FAK/ERK levels in NHM and WM858 after overnight drug incubation (FIG. 13M); quantification of FAK (FIG. 13N) and ERK phosphorylation (FIG. 13O); mean.+−.s.d.; n=4; *, p<0.05; p values, Student's t-test. FIG. 13P: ERK activity in NC, 841 and 102 cells (0.05 mM IPTG for 5 days) after overnight drug incubation.
(§2) Isopropyl β-D-1-thiogalactopyranoside (IPTG), 4′,6-Diamidino-2-phenylindole dihydrochloridemitomycin (DAPI), blebbistatin and PF-573228 were purchased from Sigma-Aldrich. Dabrafenib (GSK2118436) was purchased from Selleckchem. FAK antibody (06-543) was from EMD MILLIPORE®. FAK pY397 (44624G) antibody was from Life Technologies. Total ERK (9102) and phospho-ERK (4370) antibodies were from Cell Signaling. Paxillin (610051), ITGB3 (555754), ITGB1 (555443) and mouse IgG1 kappa (555749) antibodies were from BD Transduction Labs. Drugs were used at 5 μM final concentration. EGFP control cDNA was from (Lonza). FAK cDNA was obtained from A. Huttenlocher, Addgene plasmid number 35039 (Chan et al., J. Biol. Chem., 285:11418-26 (2010)).
PYK2, a FAK-like tyrosine kinase, could not be detected in WM858 cells, irrespective of endogenous FAK levels. WM858 cells carrying control (NC) or FAK-specific shRNAs (841 and 102) were then exposed to IPTG for 5 days, and changes in adhesion gene expression were subsequently quantified by PCR. […] Moreover, Dabrafenib-induced blockage of ERK activity could be partially reversed by a complete FAK knock-down in 102 cells (FIG. 13P).

β3 integrin = assay: Cell surface β3 integrin expression by flow cytometry after overnight drug incubation; conditions: 5 μM
Method: as §1
as §2, with “FAK cDNA was obtained from A. Huttenlocher, Addgene plasmid number 35039 (Chan et al., J. Biol. Chem., 285:11418-26 (2010)).” left out
(§3) PYK2, a FAK-like tyrosine kinase, could not be detected in WM858 cells, irrespective of endogenous FAK levels. WM858 cells carrying control (NC) or FAK-specific shRNAs (841 and 102) were then exposed to IPTG for 5 days, and changes in adhesion gene expression were subsequently quantified by PCR. […]

FAK = target: T1, FAK (Homo sapiens, UniProt Q05397); assay: FAK Y397 auto-phosphorylation by Western blotting after overnight drug incubation; conditions: melanoma cells, 5 μM
T1 construct: FAK/ERK levels in NHM and WM858 after overnight drug incubation; endogenous in cells; host or cells: WM858 melanoma cells and NHM
T1 sequence (Q05397 whole entry): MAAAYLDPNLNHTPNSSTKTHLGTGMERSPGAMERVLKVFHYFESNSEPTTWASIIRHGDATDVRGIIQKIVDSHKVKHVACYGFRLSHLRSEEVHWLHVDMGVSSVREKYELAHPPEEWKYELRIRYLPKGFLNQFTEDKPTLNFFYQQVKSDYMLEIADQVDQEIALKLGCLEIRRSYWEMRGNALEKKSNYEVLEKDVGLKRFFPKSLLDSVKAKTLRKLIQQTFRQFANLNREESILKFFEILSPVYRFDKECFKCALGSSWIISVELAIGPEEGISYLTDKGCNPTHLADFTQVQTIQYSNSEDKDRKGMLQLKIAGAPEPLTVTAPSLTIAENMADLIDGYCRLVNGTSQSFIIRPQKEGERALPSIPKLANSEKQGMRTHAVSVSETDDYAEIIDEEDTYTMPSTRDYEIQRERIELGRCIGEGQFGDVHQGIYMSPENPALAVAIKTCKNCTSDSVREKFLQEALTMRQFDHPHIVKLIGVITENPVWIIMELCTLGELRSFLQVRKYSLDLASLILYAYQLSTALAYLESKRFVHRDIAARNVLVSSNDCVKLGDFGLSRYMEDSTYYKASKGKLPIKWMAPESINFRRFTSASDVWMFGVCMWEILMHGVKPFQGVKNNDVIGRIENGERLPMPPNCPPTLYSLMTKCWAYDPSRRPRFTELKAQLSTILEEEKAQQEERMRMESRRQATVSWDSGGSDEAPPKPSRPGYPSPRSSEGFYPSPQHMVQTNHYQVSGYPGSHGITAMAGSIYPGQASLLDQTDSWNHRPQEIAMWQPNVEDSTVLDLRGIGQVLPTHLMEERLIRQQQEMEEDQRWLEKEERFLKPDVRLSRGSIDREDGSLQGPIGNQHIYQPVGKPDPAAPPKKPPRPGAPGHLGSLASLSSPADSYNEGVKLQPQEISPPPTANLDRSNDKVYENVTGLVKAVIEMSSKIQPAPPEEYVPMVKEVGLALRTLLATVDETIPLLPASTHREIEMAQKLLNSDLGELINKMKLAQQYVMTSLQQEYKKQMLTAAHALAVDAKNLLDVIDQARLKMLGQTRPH
Method: (§4) FIGS. 13A-13P illustrate B-raf^V600E inhibits FAK to promote integrin surface expression. FIG. 13A: shRNAs 841, 102 and NC were induced in WM858 cells by IPTG for 5 days (n=4) followed by RNA quantitation. Genes regulated at 0 vs. 0.05 mM IPTG in 841 and 102 but not NC cells are shown. These were: ITGB3 (orange), FAK (blue). Light orange, light blue: up- or down-regulation, respectively, by either 841 or 102 shRNA. FIG. 13B: WM858 cells were transfected with FAK or EGFP cDNA. Regulated genes, FAK over EGFP cells, are shown in orange (up) or blue (down) (n=4). FIG. 13C: Flow cytometry of NC, 841 and 102 cells (un-induced vs. 0.05 mM IPTG for 5 days). FIG. 13D: Integrin cell surface mean intensities; mean.+−.s.d.; n=3; *, p<0.05; p values, Student's t-test; ns, not significant. FIG. 13E: Visualization of focal adhesions by paxillin staining on micropatterned fibronectin disks. […] FIGS. 13M-13O: FAK/ERK levels in NHM and WM858 after overnight drug incubation (FIG. 13M); quantification of FAK (FIG. 13N) and ERK phosphorylation (FIG. 13O); mean.+−.s.d.; n=4; *, p<0.05; p values, Student's t-test. […]
as §3

ERK = ERK activity (phospho-ERK) by Western blotting after overnight drug incubation; conditions: WM858 melanoma cells, 5 μM
Method: as §4, §3

Cc1ccc2c(c1)C(=O)C1(O)CCN(c3ccccc3)C1=N2 (stereo not drawn) [blebbistatin]
β1 integrin surface levels (β1 integrin; B-raf wild-type melanoma cells): not | β1 integrin surface levels (β1 integrin; B-rafV600E melanoma cells): induced | β3 integrin surface levels (β3 integrin; B-rafV600E melanoma cells): induced

CC(C)(C)c1nc(-c2cccc(NS(=O)(=O)c3c(F)cccc3F)c2F)c(-c2ccnc(N)n2)s1 [Dabrafenib]
FAK tyrosine (Y) 397 auto-phosphorylation (FAK): increased | ERK activity (ERK): blockage | integrin levels (cell surface β1) (β1 integrin; NHM): not | integrin levels (cell surface β1) (β1 integrin; most melanoma cells): reduced | integrin levels (cell surface β3) (β3 integrin; NHM): not | integrin levels (cell surface β3) (β3 integrin; most melanoma cells): reduced
